We go through one compound from PMC3610872, “Full and Partial Agonists of Thromboxane Prostanoid Receptor Unveil Fine Tuning of Receptor Superactive Conformation and G Protein Activation” (PLoS ONE, 2013).

The target in assay [1] is T1, E129V mutant human TP receptor (Homo sapiens, UniProt P21731, E129V).
T1 construct: expressed in transfected cells; host or cells: HEK293
T1 sequence (P21731 1-343 E129V): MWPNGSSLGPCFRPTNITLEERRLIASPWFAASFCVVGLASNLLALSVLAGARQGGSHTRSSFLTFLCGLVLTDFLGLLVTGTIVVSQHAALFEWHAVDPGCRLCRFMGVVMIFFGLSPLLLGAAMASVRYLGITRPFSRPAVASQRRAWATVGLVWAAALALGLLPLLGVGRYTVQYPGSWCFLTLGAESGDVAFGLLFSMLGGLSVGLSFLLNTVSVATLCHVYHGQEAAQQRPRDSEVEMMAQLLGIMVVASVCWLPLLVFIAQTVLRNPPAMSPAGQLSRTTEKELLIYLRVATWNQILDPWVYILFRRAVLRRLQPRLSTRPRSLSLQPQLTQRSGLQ
Kind of assay: [3H]SQ29,548 radioligand binding (mixed-type and heterologous competition), E129V mutant. The conditions noted are these: HEK293 cells. How it is done: Receptor expression and functional activity were monitored 48 hours after transfection. […] Heterologous competition studies involved concentrations of the indicated unlabeled ligands extending from 0.1 nM to 30 µM. After 30 min incubation at 25 °C, the reaction was stopped by aspiration of the medium, cells were washed with ice-cold PBS containing 0.2% (w/v) BSA and lysed in 0.5 N NaOH. Radioactivity was measured by liquid scintillation counting. Binding data were analyzed as described in Data and Statistical Analysis. Quantification of the total labeled inositol phosphates (IP) accumulation was performed using a conventional gravity flow column chromatography, as described previously, [19]. Briefly, the day before the assay, cells were labeled with 0,5 µCi of [myo-2-^3H]inositol (17 Ci/mmol) for 18–20 hours in serum-free, inositol-free DMEM containing 20 mM HEPES buffer, pH 7.4, and 0.5% (w/v) Albumax I. The day of the assay, media was replaced with serum-free, inositol-free DMEM containing 25 mM LiCl and cells stimulated for 30 min with the indicated agonists. After removal of the medium, cells were lysed with 10 mM formic acid and lysates were applied onto an anion exchange AG 1X-8 column, formate form, 200–400 mesh. The total IP fraction was then eluted with 2 M ammonium formate/formic acid buffer at pH 5 and radioactivity determined by liquid scintillation counting. Rescue experiments were performed essentially as above, except for a 18 hours incubation step with 1 µΜof […] followed by its removal by washing three times with ice-cold PBS containing 1 mM MgCl2 and 0.1 mM CaCl2 before starting the experiment.
(§1) All average results are presented as mean±S.E. When indicated, ANOVA followed by post-hoc test for multiple comparisons was performed. Data from radioligand binding were evaluated by a nonlinear, least-squares curve-fitting procedure using GraphPad Prism version 4, implemented with the n-ligand m-binding site model, as described in the LIGAND computer program. Concentration-response curves were evaluated using Prism 4, which use the four parameters logistic model as described in the ALLFIT program. Parameter errors are all expressed in percentage coefficient of variation (%CV) and calculated by simultaneous analysis of at least two different independent experiments performed in duplicate or triplicate. Parameter comparison has been performed on the base of the F test for extra sum of square principle. All curves shown are computer generated.
Thus, transfection conditions were adjusted to secure equivalent levels of receptor expression for WT and mutants as previously described, [17], [19]. […] All the experiments were conducted within this range of receptor expression, if not specified differently.

Assay [2] addresses T2, double mutant E129V/E240V of human TP receptor (Homo sapiens, UniProt P21731, E129V/E240V).
T2 construct: expressed in transfected cells; host or cells: HEK293
T2 sequence (P21731 1-343 E129V/E240V): T1 sequence (P21731 1-343 E129V) with E240V
The assay can be described thus: Total inositol phosphate (IP) accumulation, E129V/E240V double mutant, rescue with SQ29,548. It counts as cell-based. Conditions: HEK293 cells, E129V/E240V double mutant after rescue with 1 µM SQ29,548 for 18 h; ±33%CV. How it is done:
Receptor expression and functional activity were monitored 48 hours after transfection. […] Heterologous competition studies involved concentrations of the indicated unlabeled ligands extending from 0.1 nM to 30 µM. After 30 min incubation at 25 °C, the reaction was stopped by aspiration of the medium, cells were washed with ice-cold PBS containing 0.2% (w/v) BSA and lysed in 0.5 N NaOH. Radioactivity was measured by liquid scintillation counting. Binding data were analyzed as described in Data and Statistical Analysis. Quantification of the total labeled inositol phosphates (IP) accumulation was performed using a conventional gravity flow column chromatography, as described previously, [19]. […] The total IP fraction was then eluted with 2 M ammonium formate/formic acid buffer at pH 5 and radioactivity determined by liquid scintillation counting. […]
All average results are presented as mean±S.E. When indicated, ANOVA followed by post-hoc test for multiple comparisons was performed. Data from radioligand binding were evaluated by a nonlinear, least-squares curve-fitting procedure using GraphPad Prism version 4, implemented with the n-ligand m-binding site model, as described in the LIGAND computer program. Concentration-response curves were evaluated using Prism 4, which use the four parameters logistic model as described in the ALLFIT program. […]

In the next assay the test system is E240V mutant TP receptor. Set-up: method as in PMID 20383734. The conditions noted are these: E240V vs WT; cited from earlier work.
In assay [3] the target is T1, E129V mutant human TP receptor. Kind of assay: BRET2 measurement of Gq protein activation, E129V mutant. It counts as cell-based. Conditions: HEK293 cells. How it is done:
as §1

Substitutions are numbered along the chain they refer to. Where “and” joins values, the source holds several entries; their conditions need not be identical. Equal values may be shown once.

For `CCCCC[C@H](O)/C=C/[C@@H]1[C@@H](C/C=C\CCCC(=O)O)[C@H]2CO[C@@H]1C2` (relative stereo) [U46619, [1R-[1α,4α,5β(Z),6α(1E,3S*)]]-7-[6-(3-hydroxy-1-octenyl)-2-oxabicyclo[2.2.1]hept-5-yl]-5-heptenoic acid], the inhibition constant Ki (commonly the equilibrium dissociation constant of an inhibitor or competing ligand from its target) in assay [1] (E129V, competition vs 1 nM [3H]SQ29,548, 25°C 30 min, value ±%CV) is 16.3 ± 18 nM. Besides, in assay [1] (WT vs E129V), the “Affinity ratio (Ki WT over Ki E129V)” value is 10 and 10.4. Besides, the concentration giving a half-maximal response (EC50) (usually the concentration that produces a half-maximal response) in assay [2] came out at 1.66 nM; in assay [3] (E129V, Gαq-Rluc8/GFP10-Gγ2/Gβ1, 2 min ligand, value ±%CV), 4.53 nM. In the assay with E240V mutant TP receptor, the “Fold lower EC50 than WT, total IP formation” value was 10 fold. Moreover, the “Activity ratio (EC50 WT over EC50 E129V), BRET” value in assay [3] (WT vs E129V) is recorded as 76.
